Our source for the IC50 values is PubChem BioAssay AID623871 (Sanford-Burnham Center for Chemical Genomics, 2012).

Calls of active or inactive are those of the source.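 How the source made its calls: active means IC50 at or below 10 µM; inactive means the rest.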 A value given as a limit tells only on which side of the number the result lay.

A word on the IC50: it is the concentration at which inhibition is half-maximal.

The subject of this assay is H9c2 cardiomyoblasts, 2-deoxyglucose injury, ATP luminescence, 2 h. Nature of the assay: protection of H9c2 cells from ATP loss, SAR follow-up, 2-deoxyglucose, ATP luminescence (AID 623871).
Turning to `COc1ccc(-c2cc(C(=O)NCc3ccccc3)c3ccccc3n2)cc1OC`, the IC50 is > 79 µM (inactive). In the case of `COc1ccc(-c2cc(C(=O)N(C)C)c3ccccc3n2)cc1OC`, the IC50 is > 79 µM (inactive). To `NC(=O)c1nsc(C(=O)N(Cc2ccccc2)C(C(=O)NCc2ccc(F)cc2)c2ccc(O)cc2)c1N` (centres undefined) belongs > 79 µM (inactive); to `O=C1c2ccccc2N2C(=O)c3ccccc3[C@H]2N1c1ccccc1`, 34.3 µM (inactive); to `COc1ccc(-n2cc(-c3ccccc3)c3c(N4CCCCC4)ncnc32)cc1`, 10.6 µM (inactive). Next, `COc1ccc2c(=O)c(C(=O)N3CCN(S(=O)(=O)c4c(C)cc(C)cc4C)CC3)c[nH]c2c1`: > 79 µM (inactive); `CCN(CC(=O)Nc1ccc(OC)cc1)C(=O)c1cc(-c2cccs2)nn1-c1ccccc1`: 6.24 µM; `COc1ccc2c(c1OC)C(=O)N1c3ccccc3C(=O)N(c3ccccc3C)C21` (centres undefined): 36.1 µM (inactive). To `CC(C)CCNC(=O)C(c1ccc(O)cc1)N(C(=O)c1snc(C(N)=O)c1N)c1ccccc1F` (centres undefined) belongs > 79 µM (inactive). Turning to `COc1ccc(-c2cc(C(=O)NCc3ccco3)c3ccccc3n2)cc1OC`, the IC50 is 39.2 µM (inactive). On to `COc1cccc(CN(C)C(=O)c2cc(-c3ccccc3)nc3ccc(C)cc23)c1OC`, for which the IC50 is > 79 µM (inactive).

For `NC(=O)c1nsc(C(=O)N(c2cccc(F)c2)C(C(=O)NC2CCCC2)c2ccc(O)cc2)c1N` (centres undefined), the IC50 was > 79 µM (inactive). Next, `Cc1ccc(S(=O)(=O)N2CCN(C(=O)c3cc(=O)[nH]c4ccccc34)CC2)cc1C`: 33.4 µM (inactive). To `Cc1ccc2cc(CN(C)S(=O)(=O)c3ccc(F)cc3)c(=O)[nH]c2c1` belongs > 79 µM (inactive); to `CCCN(CC(=O)Nc1ccccc1OC)C(=O)c1cc(-c2cccs2)nn1-c1ccccc1`, > 79 µM (inactive); to `COc1ccc2c(c1OC)C(=O)N1c3ccccc3C(=O)N(c3cccc(Br)c3)C21` (centres undefined), 10.6 µM (inactive). As for `COc1ccc2cc(C(=O)N3CCN(S(=O)(=O)c4ccc(C)cc4C)CC3)c(C)nc2c1`, the IC50 was > 79 µM (inactive).

Consider `COc1ccc(NC(=O)CN(C)C(=O)c2cc(-c3cccs3)nn2-c2ccccc2)cc1`, for which the IC50 is 38.6 µM (inactive). Next, `Cc1ccc(C)c(S(=O)(=O)N2CCN(C(=O)c3cc4cc(C)ccc4nc3C)CC2)c1`: 46.2 µM (inactive); `COc1cccc(CN(C)C(=O)c2cc(-c3ccc(OC)c(OC)c3)nc3ccccc23)c1`: 15.1 µM (inactive); `COc1ccc2c(c1OC)C(=O)N1c3ccccc3C(=O)N(c3ccc(F)cc3)C21` (centres undefined): 39.4 µM (inactive). To `COc1cc(-c2cc(C(=O)Nc3cccc(C(C)=O)c3)c3ccccc3n2)cc(OC)c1OC` belongs 10.7 µM (inactive). To `COCCn1c(SC(C(=O)Nc2cc(C)ccc2C)c2ccccc2)nc2ccccc2c1=O` (centres undefined) belongs 4.01 µM (inactive). `CCN(CC)S(=O)(=O)c1cc(C(=O)N2CCN(Cc3cccc4cccnc34)CC2)ccc1C`: the IC50 is > 79 µM (inactive). `COc1ccc(N2C(=O)c3ccccc3N3C(=O)c4c(ccc(OC)c4OC)C23)cc1` (centres undefined): the IC50 is 29.3 µM (inactive).

Regarding `COc1ccc(-c2cc(C(=O)N(C)Cc3ccc(OC)c(OC)c3OC)c3ccccc3n2)cc1OC`, the IC50 is 7.31 µM. To `Cc1ccc(NC(=O)CN(C)C(=O)c2cc(-c3cccs3)nn2-c2ccccc2)cc1` belongs 27.2 µM (inactive); to `COc1ccc(S(=O)(=O)N(Cc2cccnc2)Cc2cc3ccccc3[nH]c2=O)cc1`, 53.9 µM (inactive). As for `Cc1ccc(S(=O)(=O)N(Cc2cccnc2)Cc2cc3ccccc3[nH]c2=O)cc1`, the IC50 was > 79 µM (inactive). Turning to `CCN(CC)C(=O)C(=O)c1c(-c2ccccc2)[nH]c2ccccc12`, the IC50 was > 79 µM (inactive). For the compound `O=c1[nH]c2ccccc2cc1CN(Cc1ccco1)S(=O)(=O)c1ccc(F)cc1`, the IC50 was > 79 µM (inactive).

As for `O=C(C(=O)N1CCCC1)c1c(-c2ccccc2)[nH]c2ccccc12`, the IC50 was > 79 µM (inactive). Consider `COc1cccc(NC(=O)CN(C)C(=O)c2cc(-c3cccs3)nn2-c2ccccc2)c1`, for which the IC50 is > 79 µM (inactive).

As for `Cc1ccc2cc(CN(Cc3cccnc3)S(=O)(=O)c3ccc(F)cc3)c(=O)[nH]c2c1`, the IC50 is > 79 µM (inactive).

Turning to `O=C(C(=O)N1CCCCC1)c1c(-c2ccccc2)[nH]c2ccccc12`, the IC50 was > 79 µM (inactive). Regarding `Cc1ccc(-c2[nH]c3ccccc3c2C(=O)C(=O)N(C)C)cc1`, the IC50 was > 79 µM (inactive). In the case of `CCCn1c(SC(C(=O)Nc2cccc(OC)c2)c2ccccc2)nc2ccccc2c1=O` (centres undefined), the IC50 is > 79 µM (inactive).

With `COCCNC(=O)C(c1ccc(O)cc1)N(C(=O)c1snc(C(N)=O)c1N)c1ccccc1F` (centres undefined), the IC50 was > 79 µM (inactive).

As to `COc1ccccc1N1C(=O)c2ccccc2N2C(=O)c3c(ccc(OC)c3OC)C12` (centres undefined), the IC50 is 42.5 µM (inactive).

As to `COc1ccc(-n2cc(-c3ccccc3)c3c(NCc4ccccc4)ncnc32)cc1`, the IC50 was 13.6 µM (inactive). Next, `COc1ccc(-n2cc(-c3ccccc3)c3c(N4CCCC4)ncnc32)cc1`: > 79 µM (inactive); `COc1ccc2cc(C(=O)N3CCN(S(=O)(=O)c4cc(C)ccc4C)CC3)c(C)nc2c1`: > 79 µM (inactive); `COc1cccc(NC(=O)C(Sc2nc3ccccc3c(=O)n2CC(C)C)c2ccccc2)c1` (centres undefined): 19.5 µM (inactive).

Regarding `Cc1ccccc1N(C(=O)c1snc(C(N)=O)c1N)C(C(=O)NCc1ccc(F)cc1)c1ccc(O)cc1` (centres undefined), the IC50 is > 79 µM (inactive).
